Measured values from patent US20210337789A1, “Derivatives of m-Guaiacol, Their Preparation and Their Uses” (Universite de Caen Normandie, priority 2018, published 2021).

Legend:
[1] = system: S. aureus strains presenting high levels of resistance; assay: Bacterial growth on S. aureus strains presenting high levels of resistance; assay type: cell-based, Staphylococcus aureus; parameters: key to Effects (0 < 1 < 2 < 3): 0 = no effect; 1 = pure only; 2 = several concs; 3 = strong at each; conditions: for Effects (0 < 1 < 2 < 3): molecules at 1, 0.5 and 0.1 mg/ml, triclosan at 0.1 mg/ml
Procedure: (§1) The bacterial growth is evaluated by measuring the optical density (DO) at 600 nm using NanoDrop.
(§2) This ratio permits a classification of the molecules in 4 effect levels: • 0=no effect observed; • 1=effect observed only when the molecule is tested pure; • 2=effect observed at several concentrations, but which gradually decreases the dilutions; • 3=strong effect observed at each concentration of molecule tested.
(§3) Compounds of the invention were tested on 4 strains of E. coli, 3 strains of K. pneumoniae and 4 strains of S. aureus with the resistance profiles below.

Staphylococcus aureus = assay: Bacterial growth screening on wild-type phenotype strain, S. aureus; assay type: cell-based
Procedure: as §1, §2
(§4) A screening of molecules of the invention on several wild-type phenotype strains has been carried out.
(§5) The strains initially selected are: • Gram+: Streptococcus equi subsp zooepidemicus and Staphylococcus aureus • Gram−: Escherichia coli, Klebsiella pneumoniae and Stenotrophomonas maltophila.

[2] = system: Streptococcus equi subsp zooepidemicus; assay: Bacterial growth screening on wild-type phenotype strain, S. zooepidemicus; assay type: cell-based
Procedure: as §1, §2, §4, §5

[3] = system: KB cells (epidermoid carcinoma); assay: In vitro cytotoxicity, cell proliferation test (MTS) on KB cells; assay type: cell-based; conditions: Homo sapiens, KB cells, triplicate, 72 hours of exposure, with respect to DMSO control, read-out: percentage of inhibition of cell growth
Procedure: The human cell strain KB (epidermoid carcinoma) was obtained from the NCI (National Cancer Institute) and cultivated in the D-MEM medium added with 10% of foetal bovine serum (Invitrogen) in the presence of penicillin, streptomycin and fungizone in flasks of […] under CO2 at 5%. The cells were deposited on tissue culture microplates with 96 wells and a density of 650 cells/well in 200 μl of medium and treated 24 hours later with compounds of the invention dissolved in DMSO at concentrations going from 0.5 nM to 10 μM using a Biomek 3000 (Beckman-Coulter) automaton. The controls received the same volume of DMSO (1% of final volume). After 72 hours of exposure, the MTS reagent (Celltiter 96Aqueous One solution, Promega) was added and incubated for 3 hours at 37° C.: the absorbance was measured at 490 nm and the results of inhibition of the cell proliferation were calculated according to the ratio [(1−(OD490treated/OD490control))×100].
Results: Cytotoxicity at 10^−5 and 10^−6M on Triplicate KB Cells, Measured after 72 Hours of Exposure.
The percentage of inhibition of cell growth with respect to the cells receiving the same quantity of DMSO is outlined in the table below.

Klebsiella pneumoniae = assay: Bacterial growth screening on wild-type phenotype strain, K. pneumoniae; assay type: cell-based
Procedure: as §1, §2, §4, §5

[4] = system: K. pneumoniae strains presenting high levels of resistance; assay: Bacterial growth on K. pneumoniae strains presenting high levels of resistance; assay type: cell-based, Klebsiella pneumoniae; parameters: key to Effects (0 < 1 < 2 < 3): 0 = no effect; 1 = pure only; 2 = several concs; 3 = strong at each; conditions: for Effects (0 < 1 < 2 < 3): molecules at 1, 0.5 and 0.1 mg/ml, triclosan at 0.1 mg/ml
Procedure: as §1, §2, §3

[5] = system: Stenotrophomonas maltophila; assay: Bacterial growth screening on wild-type phenotype strain, S. maltophila; assay type: cell-based
Procedure: as §1, §2, §4, §5

Escherichia coli = assay: Bacterial growth screening on wild-type phenotype strain, E. coli; assay type: cell-based
Procedure: as §1, §2, §4, §5

[6] = system: E. coli strains presenting high levels of resistance; assay: Bacterial growth on E. coli strains presenting high levels of resistance; assay type: cell-based, Escherichia coli; parameters: key to Effects (0 < 1 < 2 < 3): 0 = no effect; 1 = pure only; 2 = several concs; 3 = strong at each; conditions: for Effects (0 < 1 < 2 < 3): molecules at 1, 0.5 and 0.1 mg/ml, triclosan at 0.1 mg/ml
Procedure: as §1, §2, §3

[7] = system: Micrococcus luteus reference strain; assay: Bacterial growth (optical density at 600 nm) on Micrococcus luteus reference strain; assay type: cell-based; parameters: key: 0 = no effect, 1 = pure only, 2 = several concentrations, 3 = strong at all; conditions: in DMSO diluted in PBS, compared with triclosan
Procedure: as §1, §2
The molecules are put in a solution in DMSO and diluted in PBS.

COc1cc(O)c(Cl)c(Cl)c1Cl [sr7585]
Δ DO ([1]; S. aureus Strain 1, 0.1 mg/ml): 0.352 | Δ DO ([1]; S. aureus Strain 1, 0.5 mg/ml): 0.445 | Δ DO ([1]; S. aureus Strain 1, 1 mg/ml): 0.445 | Effects (0 < 1 < 2 < 3) ([1]; S. aureus Strain 1): 3 | Δ DO ([1]; S. aureus Strain 2, 0.1 mg/ml): 0.385 | Δ DO ([1]; S. aureus Strain 2, 0.5 mg/ml): 0.458 | Δ DO ([1]; S. aureus Strain 2, 1 mg/ml): 0.457 | Effects (0 < 1 < 2 < 3) ([1]; S. aureus Strain 2): 3 | Δ DO ([1]; S. aureus Strain 3, 0.1 mg/ml): 0.459 | Δ DO ([1]; S. aureus Strain 3, 0.5 mg/ml): 0.529 | Δ DO ([1]; S. aureus Strain 3, 1 mg/ml): 0.530 | Effects (0 < 1 < 2 < 3) ([1]; S. aureus Strain 3): 3 | Δ DO ([1]; S. aureus Strain 4, 0.1 mg/ml): 0.405 | Δ DO ([1]; S. aureus Strain 4, 0.5 mg/ml): 0.491 | Δ DO ([1]; S. aureus Strain 4, 1 mg/ml): 0.486 | Effects (0 < 1 < 2 < 3) ([1]; S. aureus Strain 4): 3 | Effect level, S. aureus (Staphylococcus aureus): 3 | Effect level, S. zooepidemicus [2]: 3 | inhibition at 10 µM ([3]; 10^−5 M): 0% | inhibition at 1 µM ([3]; 10^−6 M): 0% | Effect level, K. pneumoniae (Klebsiella pneumoniae): 2 | Δ DO ([4]; K. pneumoniae Strain 1, 0.1 mg/ml): 0.251 | Δ DO ([4]; K. pneumoniae Strain 1, 0.5 mg/ml): 0.595 | Δ DO ([4]; K. pneumoniae Strain 1, 1 mg/ml): 0.644 | Effects (0 < 1 < 2 < 3) ([4]; K. pneumoniae Strain 1): 3 | Δ DO ([4]; K. pneumoniae Strain 2, 0.1 mg/ml): 0.035 | Δ DO ([4]; K. pneumoniae Strain 2, 0.5 mg/ml): 0.620 | Δ DO ([4]; K. pneumoniae Strain 2, 1 mg/ml): 0.701 | Effects (0 < 1 < 2 < 3) ([4]; K. pneumoniae Strain 2): 2 | Δ DO ([4]; K. pneumoniae Strain 3, 0.1 mg/ml): 0.265 | Δ DO ([4]; K. pneumoniae Strain 3, 0.5 mg/ml): 0.683 | Δ DO ([4]; K. pneumoniae Strain 3, 1 mg/ml): 0.872 | Effects (0 < 1 < 2 < 3) ([4]; K. pneumoniae Strain 3): 2 | Effect level, S. maltophila [5]: 2 | Effect level, E. coli (Escherichia coli): 3 | Δ DO ([6]; E. coli Strain 1, 0.1 mg/ml): 0.196 | Δ DO ([6]; E. coli Strain 1, 0.5 mg/ml): 0.746 | Δ DO ([6]; E. coli Strain 1, 1 mg/ml): 0.920 | Effects (0 < 1 < 2 < 3) ([6]; E. coli Strain 1): 3 | Δ DO ([6]; E. coli Strain 2, 0.1 mg/ml): 0.313 | Δ DO ([6]; E. coli Strain 2, 0.5 mg/ml): 0.964 | Δ DO ([6]; E. coli Strain 2, 1 mg/ml): 1.097 | Effects (0 < 1 < 2 < 3) ([6]; E. coli Strain 2): 3 | Δ DO ([6]; E. coli Strain 3, 0.1 mg/ml): 0.186 | Δ DO ([6]; E. coli Strain 3, 0.5 mg/ml): 0.736 | Δ DO ([6]; E. coli Strain 3, 1 mg/ml): 0.893 | Effects (0 < 1 < 2 < 3) ([6]; E. coli Strain 3): 3 | Δ DO ([6]; E. coli Strain 4, 0.1 mg/ml): 0.322 | Δ DO ([6]; E. coli Strain 4, 0.5 mg/ml): 0.848 | Δ DO ([6]; E. coli Strain 4, 1 mg/ml): 0.979 | Effects (0 < 1 < 2 < 3) ([6]; E. coli Strain 4): 3 | Effect level [7]: 3
